From publication PMC7252619 (PLoS ONE, 2020)
Read-outs that look alike come from different tables or passages of the source.

Experiments:
[1] = WST-1 cytotoxicity assay on RPMI1788 cells (B-cell line); assay type: cell-based, human; details: human, RPMI1788 cells (B-cell line), mean of 4 independent measures, read-out: Cytotoxicity, WST-1 RPMI 1788 IC 50 (µM) Mean
Description: (§1) Compounds were prepared as 10 mM stock solutions in dimethylsulfoxide (DMSO)and were tested at 50-10-1-0.1-0.01 and 0.001 μM in the 4 assays.
The human B cell line RPMI1788 (American Type Culture Collection, USA) and the human T cell line Jurkat (European Collection of Cell Cultures, ECACC, England) were maintained in RPMI1640 culture medium (BioWhittaker®, Lonza, Verviers, Belgium) containing 10% foetal calf serum (FCS, HyClone® Thermo Scientific, United Kingdom) and 5 μg/mL gentamicin sulphate (BioWhittaker®, Lonza, Verviers, Belgium) at 37°C and 5% CO2.
WST-1 assays on RPMI-1788 cells and Jurkat cells were performed as follows: 20 μL of test compound dilution were added to each well containing exponential growing cells and the plates were incubated for 48 h at 37°C, 5% CO2. Untreated cells and positive control (1% triton X-100, for the last 15 min) served as reference for maximum and minimum viability. At the end of incubation 100 μL of supernatant were removed and replaced by 10 μL of WST-1 solution (Cell Proliferation Reagent WST-1, Roche Applied Science).

[2] = tested on: human PBMCs (responder cells) with RPMI1788 stimulator cells; experiment: Mixed Lymphocyte Reaction (MLR, T cell assay), 3H-thymidine incorporation; assay type: cell-based; details: for IC50: Homo sapiens, RPMI-1788, mean of 4 independent measures, read-out: T-cell efficacy, MLR IC 50 (µM) Mean
EPHB4 = molecular target: T1, EPHB4 (Homo sapiens, UniProt P54760); experiment: Kinase activity test (ReactionBiology), % enzyme activity relative to DMSO; assay type: biochemical; details: EPHB4;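 further: EPHB4 was one of ten selected kinases in the screening panel, with enzyme activity expressed as a percentage of DMSO controls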
T1 construct: purchased ReactionBiology
T1 sequence (P54760 16-987): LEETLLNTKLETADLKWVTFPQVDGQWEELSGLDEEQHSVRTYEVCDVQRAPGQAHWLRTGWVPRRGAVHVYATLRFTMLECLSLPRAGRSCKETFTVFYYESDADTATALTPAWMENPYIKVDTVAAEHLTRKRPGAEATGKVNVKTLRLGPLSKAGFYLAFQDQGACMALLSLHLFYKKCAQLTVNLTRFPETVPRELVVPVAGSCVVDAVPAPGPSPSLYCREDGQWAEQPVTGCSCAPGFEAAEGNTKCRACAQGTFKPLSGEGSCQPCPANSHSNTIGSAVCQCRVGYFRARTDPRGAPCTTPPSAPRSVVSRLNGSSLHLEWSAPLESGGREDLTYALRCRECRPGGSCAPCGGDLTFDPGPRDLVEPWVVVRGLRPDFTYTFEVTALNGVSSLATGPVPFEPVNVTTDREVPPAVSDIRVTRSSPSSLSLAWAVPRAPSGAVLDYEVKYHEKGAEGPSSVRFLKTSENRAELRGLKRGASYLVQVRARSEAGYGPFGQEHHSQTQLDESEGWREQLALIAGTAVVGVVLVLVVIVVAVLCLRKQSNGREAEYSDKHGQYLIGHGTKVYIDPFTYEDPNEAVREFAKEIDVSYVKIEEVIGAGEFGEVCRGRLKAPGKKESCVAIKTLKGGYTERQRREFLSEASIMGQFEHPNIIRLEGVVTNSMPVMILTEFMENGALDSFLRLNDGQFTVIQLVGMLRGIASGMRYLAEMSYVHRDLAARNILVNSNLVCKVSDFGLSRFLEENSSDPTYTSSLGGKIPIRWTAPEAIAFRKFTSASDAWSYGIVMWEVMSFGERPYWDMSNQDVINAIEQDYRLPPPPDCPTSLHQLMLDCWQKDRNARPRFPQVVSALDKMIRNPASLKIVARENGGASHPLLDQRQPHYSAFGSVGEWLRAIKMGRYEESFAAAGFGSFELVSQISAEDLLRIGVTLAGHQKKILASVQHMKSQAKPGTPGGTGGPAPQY

VEGFR2 = VEGFR2 (Homo sapiens, UniProt P35968); experiment: as above; assay type: biochemical; set-up: purchased ReactionBiology; details: VEGFR2;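 further: VEGFR2 was one member of a ten-kinase screening panel testing marketed FDA-approved drugs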
[3] = WST-1 cytotoxicity assay on Jurkat cells (T-cell line); assay type: cell-based, human; details: human, Jurkat cells (T-cell line), mean of 4 independent measures, read-out: Cytotoxicity, WST-1 Jurkat IC 50 (µM) Mean
NEK2 = molecular target: T2, NEK2 (Homo sapiens, UniProt P51955); experiment: Kinase activity test (ReactionBiology), % enzyme activity relative to DMSO; assay type: biochemical; details: NEK2;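 further: FDA-approved drugs chosen by structure-based repositioning, each screened at 10 or 1 µM for kinase activity, expressed as percent of DMSO controls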
T2 construct: purchased ReactionBiology
T2 sequence (P51955 1-445): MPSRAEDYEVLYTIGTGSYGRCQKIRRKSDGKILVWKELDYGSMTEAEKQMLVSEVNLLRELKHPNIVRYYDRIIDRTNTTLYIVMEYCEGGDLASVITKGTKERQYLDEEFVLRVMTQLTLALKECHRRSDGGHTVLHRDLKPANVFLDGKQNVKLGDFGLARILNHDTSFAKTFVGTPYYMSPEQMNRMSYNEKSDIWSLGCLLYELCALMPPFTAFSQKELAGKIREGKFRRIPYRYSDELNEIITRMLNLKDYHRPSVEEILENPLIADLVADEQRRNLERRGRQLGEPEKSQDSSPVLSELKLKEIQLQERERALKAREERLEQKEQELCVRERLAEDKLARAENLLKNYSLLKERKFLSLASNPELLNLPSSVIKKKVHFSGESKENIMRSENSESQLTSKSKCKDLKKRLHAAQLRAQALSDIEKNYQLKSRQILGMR

human CD19+ B cells = experiment: B-cell assay: IgG production of ODN2006-stimulated primary B cells (AlphaLISA); assay type: cell-based; details: Homo sapiens, B-cell, 168 h; IgG production, ODN2006 0.1 μM, 7 days; mean of 4 independent experiments; read-out: B-cell IC50
Description: as §1
Blood samples of healthy volunteers were collected at the Red Cross of Mechelen, Belgium.
Highly purified naive peripheral human B cells were separated from fresh human PBMCs on magnetic columns by positive selection using CD19 magnetic beads according to the manufacturer’s instructions (MACS Miltenyi Biotech, Leiden, The Netherlands). […] Freshly isolated human CD19+ B cells were then plated at 25 000 cells per well in a 384-well plate (Perkin Elmer, Zaventem, Belgium) in 55 μL in DMEM medium containing 10% FCS and 5 μg/mL gentamicin sulphate. After 7 days of stimulation with 0.1 μM ODN2006 (InvivoGen, Toulouse, France), supernatant was taken for analysis of IgG using the AlphaLISA human IgG kit according to the manufacturer’s instructions (Perkin Elmer, Zaventem, Belgium).

DAPK1 = molecular target: T3, DAPK1 (Homo sapiens, UniProt P53355); experiment: Kinase activity test (ReactionBiology), % enzyme activity relative to DMSO; assay type: biochemical; details: DAPK1
T3 construct: purchased ReactionBiology

CK1d = molecular target: T4, CK1d (Homo sapiens, UniProt P48730); experiment: as above; assay type: biochemical; details: CK1d
T4 construct: purchased ReactionBiology

[4] = 1 uM, Average, read-out: % Enzyme Activity (relative to DMSO controls), Average
[5] = 1 uM, replicate Data 1, read-out: % Enzyme Activity (relative to DMSO controls), Data 1
[6] = 1 uM, replicate Data 2, read-out: % Enzyme Activity (relative to DMSO controls), Data 2
[7] = 10 uM, Average, read-out: % Enzyme Activity (relative to DMSO controls), Average
[8] = 10 uM, replicate Data 1, read-out: % Enzyme Activity (relative to DMSO controls), Data 1
[9] = 10 uM, replicate Data 2, read-out: % Enzyme Activity (relative to DMSO controls), Data 2
[10] = Average, read-out: % Enzyme Activity (relative to DMSO controls), Average
[11] = replicate Data 1, read-out: % Enzyme Activity (relative to DMSO controls), Data 1
[12] = replicate Data 2, read-out: % Enzyme Activity (relative to DMSO controls), Data 2
[13] = compound 1μM, relative to DMSO controls, read-out: % Enzyme activity at 1μM
[14] = compound 10μM, relative to DMSO controls, read-out: % Enzyme activity at 10μM

T3 sequence (P53355 whole entry): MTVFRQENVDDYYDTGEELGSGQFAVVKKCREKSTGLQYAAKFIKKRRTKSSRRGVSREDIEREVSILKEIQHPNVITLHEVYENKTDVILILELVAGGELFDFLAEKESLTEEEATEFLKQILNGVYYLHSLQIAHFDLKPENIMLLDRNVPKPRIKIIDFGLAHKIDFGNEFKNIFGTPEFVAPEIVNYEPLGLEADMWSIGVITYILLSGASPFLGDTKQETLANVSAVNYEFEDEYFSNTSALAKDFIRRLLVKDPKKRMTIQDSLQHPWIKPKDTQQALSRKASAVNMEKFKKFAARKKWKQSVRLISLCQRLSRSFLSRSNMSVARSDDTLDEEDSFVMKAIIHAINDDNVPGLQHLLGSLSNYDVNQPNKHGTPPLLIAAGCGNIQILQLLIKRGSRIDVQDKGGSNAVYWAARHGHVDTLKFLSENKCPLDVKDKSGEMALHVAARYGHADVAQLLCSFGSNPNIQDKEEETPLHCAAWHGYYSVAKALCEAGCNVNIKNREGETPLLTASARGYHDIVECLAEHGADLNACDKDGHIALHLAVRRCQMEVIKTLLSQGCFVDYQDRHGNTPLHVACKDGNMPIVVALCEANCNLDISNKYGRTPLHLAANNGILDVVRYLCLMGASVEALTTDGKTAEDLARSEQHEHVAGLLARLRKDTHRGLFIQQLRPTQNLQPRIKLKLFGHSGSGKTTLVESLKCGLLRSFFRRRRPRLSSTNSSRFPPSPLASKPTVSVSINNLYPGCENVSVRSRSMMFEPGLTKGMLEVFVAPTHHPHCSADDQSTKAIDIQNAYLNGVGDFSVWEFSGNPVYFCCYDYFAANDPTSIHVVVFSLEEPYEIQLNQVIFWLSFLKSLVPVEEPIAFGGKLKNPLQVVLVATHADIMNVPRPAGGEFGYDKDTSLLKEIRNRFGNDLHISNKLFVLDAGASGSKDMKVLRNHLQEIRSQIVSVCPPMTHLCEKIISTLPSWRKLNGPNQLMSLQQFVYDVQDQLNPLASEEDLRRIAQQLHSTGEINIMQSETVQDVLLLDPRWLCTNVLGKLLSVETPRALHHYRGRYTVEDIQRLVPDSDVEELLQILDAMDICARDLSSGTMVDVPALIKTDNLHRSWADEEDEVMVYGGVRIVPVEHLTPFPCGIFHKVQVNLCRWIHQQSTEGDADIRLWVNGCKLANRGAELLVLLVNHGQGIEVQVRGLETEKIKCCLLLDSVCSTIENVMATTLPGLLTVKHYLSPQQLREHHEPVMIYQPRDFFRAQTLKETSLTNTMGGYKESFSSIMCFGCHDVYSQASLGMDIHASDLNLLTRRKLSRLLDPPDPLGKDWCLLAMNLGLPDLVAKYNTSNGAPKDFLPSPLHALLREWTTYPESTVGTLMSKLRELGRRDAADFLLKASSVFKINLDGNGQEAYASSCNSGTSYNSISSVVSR
T4 sequence (P48730 whole entry): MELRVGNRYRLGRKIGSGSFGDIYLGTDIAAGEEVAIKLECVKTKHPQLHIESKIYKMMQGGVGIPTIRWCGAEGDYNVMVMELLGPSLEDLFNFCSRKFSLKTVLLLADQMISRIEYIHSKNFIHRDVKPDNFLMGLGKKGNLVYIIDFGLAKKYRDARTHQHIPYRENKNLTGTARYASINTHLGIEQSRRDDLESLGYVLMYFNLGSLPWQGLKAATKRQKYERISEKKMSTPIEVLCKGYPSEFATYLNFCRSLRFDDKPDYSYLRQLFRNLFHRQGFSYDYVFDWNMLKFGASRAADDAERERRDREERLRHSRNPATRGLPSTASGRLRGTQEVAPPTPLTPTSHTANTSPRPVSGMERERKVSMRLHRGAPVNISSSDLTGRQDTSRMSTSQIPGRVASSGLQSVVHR
Chain of VEGFR2 (P35968 20-1356): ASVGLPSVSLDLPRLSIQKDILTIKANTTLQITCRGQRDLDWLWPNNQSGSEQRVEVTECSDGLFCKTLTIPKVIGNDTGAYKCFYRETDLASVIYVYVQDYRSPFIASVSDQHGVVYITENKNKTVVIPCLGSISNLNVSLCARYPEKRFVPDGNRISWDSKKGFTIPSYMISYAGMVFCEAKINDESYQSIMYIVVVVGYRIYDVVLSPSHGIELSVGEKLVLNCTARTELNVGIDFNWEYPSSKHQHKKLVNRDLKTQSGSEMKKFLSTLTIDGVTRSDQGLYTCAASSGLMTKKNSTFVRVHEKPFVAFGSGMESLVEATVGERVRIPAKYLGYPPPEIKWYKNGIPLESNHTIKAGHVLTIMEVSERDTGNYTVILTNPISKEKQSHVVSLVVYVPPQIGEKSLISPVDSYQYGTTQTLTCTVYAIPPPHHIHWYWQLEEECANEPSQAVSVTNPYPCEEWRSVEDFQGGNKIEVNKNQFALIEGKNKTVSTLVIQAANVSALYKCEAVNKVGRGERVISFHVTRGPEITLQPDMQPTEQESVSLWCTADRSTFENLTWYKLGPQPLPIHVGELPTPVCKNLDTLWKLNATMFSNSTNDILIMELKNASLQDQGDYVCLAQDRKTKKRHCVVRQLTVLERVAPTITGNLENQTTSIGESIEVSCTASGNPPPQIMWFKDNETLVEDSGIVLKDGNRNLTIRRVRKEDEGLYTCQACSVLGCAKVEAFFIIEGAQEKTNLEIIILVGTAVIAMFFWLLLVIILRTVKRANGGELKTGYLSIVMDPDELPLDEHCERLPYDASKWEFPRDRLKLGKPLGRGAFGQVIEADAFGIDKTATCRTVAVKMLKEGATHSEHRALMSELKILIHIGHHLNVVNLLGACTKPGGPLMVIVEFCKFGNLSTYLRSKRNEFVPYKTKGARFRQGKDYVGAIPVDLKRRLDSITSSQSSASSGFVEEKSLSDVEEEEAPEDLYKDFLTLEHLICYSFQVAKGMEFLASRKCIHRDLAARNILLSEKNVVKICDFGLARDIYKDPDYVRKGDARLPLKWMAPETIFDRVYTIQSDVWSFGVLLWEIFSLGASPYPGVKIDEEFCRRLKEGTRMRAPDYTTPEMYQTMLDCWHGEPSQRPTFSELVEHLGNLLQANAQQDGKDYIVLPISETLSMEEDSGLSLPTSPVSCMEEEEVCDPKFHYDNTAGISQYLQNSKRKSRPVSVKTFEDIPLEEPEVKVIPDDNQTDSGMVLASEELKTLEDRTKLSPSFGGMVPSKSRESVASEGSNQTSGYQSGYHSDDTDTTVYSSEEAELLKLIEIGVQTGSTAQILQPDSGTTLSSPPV

SMILES | IC50 at 48 h [1] | IC50 [2] | remaining activity at 1 µM (EPHB4; [4]) | remaining activity at 1 µM (EPHB4; [5]) | remaining activity at 1 µM (EPHB4; [6]) | remaining activity at 10 µM (EPHB4; [7]) | remaining activity at 10 µM (EPHB4; [8]) | remaining activity at 10 µM (EPHB4; [9]) | remaining activity at 1 µM (VEGFR2; [10]) | remaining activity at 1 µM (VEGFR2; [11]) | remaining activity at 1 µM (VEGFR2; [12]) | remaining activity at 10 µM (VEGFR2; [10]) | remaining activity at 10 µM (VEGFR2; [11]) | remaining activity at 10 µM (VEGFR2; [12]) | IC50 at 48 h [3] | remaining activity at 1 µM (NEK2; [10]) | remaining activity at 1 µM (NEK2; [11]) | remaining activity at 1 µM (NEK2; [12]) | remaining activity at 10 µM (NEK2; [10]) | remaining activity at 10 µM (NEK2; [11]) | also measured
C[C@]12CC[C@@H]3c4ccc(O)cc4CC[C@H]3[C@@H]1CC[C@@H]2O [Estradiol, reference compound] | 35.9 µM | 21.2 µM | 100% | 99.8% | 100% | 91.9% | 91.3% | 92.5% | 115% | 115% | 115% | 105% | 106% | 103% | 19.5 µM | 92.1% | 95.7% | 88.5% | 89% | 94.9% | Selectivity Index (SI) MLR/B-cell ([2]; ratio of IC50 values): 0.63; remaining activity at 10 µM (NEK2; [12]): 83%; IC50 (human CD19+ B cells): 33.9 µM; remaining activity at 1 µM (DAPK1; [4]): 111%; remaining activity at 1 µM (DAPK1; [5]): 98%; remaining activity at 1 µM (DAPK1; [6]): 123%; remaining activity at 10 µM (DAPK1; [7]): 69%; remaining activity at 10 µM (DAPK1; [8]): 68.3%; remaining activity at 10 µM (DAPK1; [9]): 69.7%; remaining activity at 1 µM (DAPK1; [13]): 111%; remaining activity at 10 µM (DAPK1; [14]): 69%; remaining activity at 1 µM (CK1d; [10]): 101%; remaining activity at 1 µM (CK1d; [11]): 99.6%; remaining activity at 1 µM (CK1d; [12]): 102%; remaining activity at 10 µM (CK1d; [10]): 96.5%; remaining activity at 10 µM (CK1d; [11]): 98.7%; remaining activity at 10 µM (CK1d; [12]): 94.2%
NC(=O)c1cccnc1 [Niacinamide, reference compound] | > 50 µM | > 50 µM | 69.3% | 69% | 69.6% | 69.7% | 68.3% | 71.1% | 96.4% | 97.5% | 95.4% | 95.7% | 90.6% | 101% | > 50 µM | 87.3% | 81% | 93.6% | 76.4% | 65% | remaining activity at 1 µM (EPHB4; [13]): 69.3%; remaining activity at 10 µM (EPHB4; [14]): 69.7%; remaining activity at 10 µM (NEK2; [12]): 87.8%; IC50 (human CD19+ B cells): > 50 µM; remaining activity at 1 µM (DAPK1; [4]): 111%; remaining activity at 1 µM (DAPK1; [5]): 112%; remaining activity at 1 µM (DAPK1; [6]): 110%; remaining activity at 10 µM (DAPK1; [7]): 100%; remaining activity at 10 µM (DAPK1; [8]): 97.7%; remaining activity at 10 µM (DAPK1; [9]): 103%; remaining activity at 1 µM (CK1d; [10]): 113%; remaining activity at 1 µM (CK1d; [11]): 107%; remaining activity at 1 µM (CK1d; [12]): 119%; remaining activity at 10 µM (CK1d; [10]): 101%; remaining activity at 10 µM (CK1d; [11]): 97.9%; remaining activity at 10 µM (CK1d; [12]): 105%
